Experimental data from US20250235545A1, “POLYPEPTIDE CONJUGATE AND USE THEREOF” (SHANGHAI CHIXI BIOMEDICAL TECHNOLOGY CO., LTD, priority 2024, published 2025).
In brackets after ≈: the same amount, converted by molar mass. Read-outs that look alike come from different tables or passages of the source.

Assays:
A2780 (ovarian cancer) = experiment: cells; assay type: cell-based; details: CCK8, 48 h; for IC50 A2780 (ovarian cancer): Table 1; for IC50 Ovarian cancer tissue (A2780): Table 6
Experimental: (§1) Different types of cells were cultured with complete media (RPMI1640 (DMEM high sugar medium)+10% fetal bovine serum+1XP/S+sodium pyruvate 1 mM solution) in an incubator at 37° C. and 5% CO2 until the cells grew to a sufficient number, and the cells were collected, centrifuged at 1,000 g for 5 min, resuspended with an appropriate volume of a 10% RMPI1640 (DMEM high sugar medium) medium and counted. In a 96-well culture plate, 100 μL of cell culture fluid containing different concentrations of drugs was added, control wells (0.1% DMSO) with only corresponding drug solvents without drugs, as well as blank wells (Blank) with only the medium but without cells were set, and three parallel wells were set in each group. After that, the cells after cell counting were inoculated onto 96-well culture plates, with 100 μL of cell suspension per well, and an inoculation concentration of the cells was 5,000 cells (100 μL)/well. The plates were then cultured in a CO2 (5%) incubator at 37° C. for 48 h. After 48 h, 10 μL of a cell proliferation staining reagent (CCK8) was added to each well, the plates were incubated in a cell incubator for around 2 h, and an absorbance at 450 nm was detected.
(§2) Cell survival rates and median inhibitory concentrations of the drugs on the cells were calculated.
as §1, with “serum+1×P/S+sodium” for “serum+1XP/S+sodium”, “adjusted to an appropriate density.” for “counted.”
(§3) Cell survival rates and median inhibitory concentrations (IC50) of the drugs on the cells were calculated.

[1] = tested on: A549 (non-small cell lung cancer); experiment: cells; assay type: cell-based; details: CCK8, 48 h; for IC50 A549 (non-small cell lung cancer): Table 1; for IC50 Non-small cell lung cancer tissue (A549): Table 6
Experimental: as §1, §2
as §1, with “serum+1×P/S+sodium” for “serum+1XP/S+sodium”, “adjusted to an appropriate density.” for “counted.”
as §3

[2] = tested on: SKBR3 (breast cancer tissue); experiment: cells; assay type: cell-based; details: CCK8, 48 h; for IC50 SKBR3 (breast cancer tissue): Table 1; for IC50 Breast cancer tissue (SKBR3): Table 6
Experimental: as §1, §2
as §1, with “serum+1×P/S+sodium” for “serum+1XP/S+sodium”, “adjusted to an appropriate density.” for “counted.”
as §3

SJSA-1 (sarcoma tissue) = experiment: cells; assay type: cell-based; details: CCK8, 48 h; for IC50 SJSA-1 (sarcoma tissue): Table 1; for IC50 Sarcoma tissue (SJSA-1): Table 6
Experimental: as §1, §2
as §1, with “serum+1×P/S+sodium” for “serum+1XP/S+sodium”, “adjusted to an appropriate density.” for “counted.”
as §3

[3] = tested on: colo320 colorectal cancer tumor model
Experimental: Test objective: To investigate the antitumor efficacy of the above compounds in an animal tumor model of colo320 colorectal cancer.
(§4) Test drug: Polypeptide conjugate, Irinotecan, Belotecan and normal saline control group.
(§5) Test animals: 6-8 weeks old BALB/c mice, all female.
(§6) Passaging was performed every three days, and cells within 15 generations were used. 7.5×10^6 corresponding cells were injected into right chests of nude mice subcutaneously. After a volume of the tumors reached at least 120 mm^3, the mice were grouped randomly, with three mice in each group. Then treatment was started, and the day when the treatment was started was the first day. […] The control group was administered with normal saline. Administration was performed once a week for four weeks.

[4] = tested on: colo320 (colorectal cancer tissue); experiment: cells; assay type: cell-based; details: CCK8, 48 h; Table 6
Experimental: as §1, with “serum+1×P/S+sodium” for “serum+1XP/S+sodium”, “adjusted to an appropriate density.” for “counted.”
as §3

[5] = MTD determination in mice (Examples 27, 36, 44); assay type: in vivo; details: mice, monitored for 14 d
Source text: Test animals: 6-8 weeks old mice, all female; mice were grouped randomly, with six mice in each group, administered with drugs at different concentration gradients separately and monitored for 14 d. A mouse was euthanized at a loss of 20% of its initial weight and deemed to have died of poisoning.

[6] = tested on: sarcoma SJSA-1 tumor model; details: 5 mg/kg once a week for three weeks
Experimental: Test objective: To investigate the antitumor efficacy of the above compounds in an animal tumor model of sarcoma SJSA-1.
as §4, §5
as §6, with “SJSA-1 cells were purchased from ATCC and cultured in a DMEM medium containing 10% fetal bovine serum at 37° C. in 5% CO2. Passaging” for “Passaging”, “2×10^7” for “7.5×10^6”, “100” for “120”, “three” for “four”
as §6, with “SJSA-1 cells were purchased from ATCC and cultured in a DMEM medium containing 10% fetal bovine serum at 37° C. in 5% CO2. Passaging” for “Passaging”, “2×10^7” for “7.5×10^6”, “100” for “120”, “three” for “four”

[7] = 5 mg/kg once a week for four weeks, Table 3
[8] = 5 mg/kg once a week for four weeks, Table 8
[9] = Table 13 (Example 42), dose 5 mg/kg, once a week for four weeks, BALB/c mice

| SMILES | IC50 A2780 (ovarian cancer) (A2780 (ovarian cancer)) | IC50 Ovarian cancer tissue (A2780) (A2780 (ovarian cancer)) | IC50 A549 (non-small cell lung cancer) [1] | IC50 Non-small cell lung cancer tissue (A549) [1] | IC50 SKBR3 (breast cancer tissue) [2] | IC50 Breast cancer tissue (SKBR3) [2] | IC50 SJSA-1 (sarcoma tissue) (SJSA-1 (sarcoma tissue)) | IC50 Sarcoma tissue (SJSA-1) (SJSA-1 (sarcoma tissue)) | Mouse weight (%) [3, 7] | colo320 (colorectal cancer cell) growth rate (%) [3, 7] | colo320 (colorectal cancer cell) mean tumor volume (mm^3) [3, 7] | Mouse weight (%) [3, 8] | colo320 (colorectal cancer cell) growth rate (%) [3, 8] | colo320 (colorectal cancer cell) mean tumor volume (mm^3) [3, 8] | IC50 Colorectal cancer tissue (colo320) [4] | MTD ([5]; Table 4) | MTD ([5]; Table 9) | Mouse weight (%) ([6]; Table 2) | SJSA-1 (sarcoma tissue) mean tumor volume (mm^3) ([6]; Table 2) | SJSA-1 (sarcoma) Growth rate (%) ([6]; Table 2) | also measured |
| --- | --- | --- | --- | --- | --- | --- | --- | --- | --- | --- | --- | --- | --- | --- | --- | --- | --- | --- | --- | --- | --- |
| CC[C@@]1(O)C(=O)OCc2c1cc1n(c2=O)Cc2c-1nc1ccccc1c2CCNCC(C)C [D5] | 0.014 µg/mL (≈ 0.0313 µM) | 0.014 µg/mL (≈ 0.0313 µM) | 0.019 µg/mL (≈ 0.0425 µM) | 0.019 µg/mL (≈ 0.0425 µM) | 0.013 µg/mL (≈ 0.029 µM) | 0.013 µg/mL (≈ 0.029 µM) | 0.012 µg/mL (≈ 0.0268 µM) | 0.012 µg/mL (≈ 0.0268 µM) | +8% | 991.91% | 1098.6 mm^3 | +8% | 991.91% | 1098.6 mm^3 | 0.029 µg/mL (≈ 0.0648 µM) | 30 mg/kg | 30 mg/kg | −5% | 1443.2 mm^3 | 1248.78% | Mouse weight (%) ([6]; Table 7): −5%; SJSA-1 (sarcoma tissue) growth rate (%) ([6]; Table 7): 1248.78%; SJSA-1 (sarcoma tissue) mean tumor volume (mm^3) ([6]; Table 7): 1443.2 mm^3 |
| CC[C@@]1(O)C(=O)OCc2c1cc1n(c2=O)Cc2c-1nc1ccccc1c2CCNC [D1] | 0.018 µg/mL (≈ 0.0444 µM) | 0.018 µg/mL (≈ 0.0444 µM) | 0.027 µg/mL (≈ 0.0666 µM) | 0.027 µg/mL (≈ 0.0666 µM) | 0.050 µg/mL (≈ 0.123 µM) | 0.050 µg/mL (≈ 0.123 µM) | 0.028 µg/mL (≈ 0.0691 µM) | 0.028 µg/mL (≈ 0.0691 µM) | −7% | 1012.22% | 1121.1 mm^3 | −7% | 1012.22% | 1121.1 mm^3 | 0.040 µg/mL (≈ 0.0987 µM) | 25 mg/kg | 25 mg/kg | −6% | 1432 mm^3 | 1235.57% | Mouse weight (%) [3, 9]: −7%; colo320 (colorectal cancer cell) growth rate (%) [3, 9]: 1012.22%; colo320 (colorectal cancer cell) mean tumor volume (mm^3) [3, 9]: 1121.1 mm^3; Mouse weight (%) ([6]; Table 7): −6%; SJSA-1 (sarcoma tissue) growth rate (%) ([6]; Table 7): 1235.57%; SJSA-1 (sarcoma tissue) mean tumor volume (mm^3) ([6]; Table 7): 1432 mm^3 |
| CCCCNCCc1c2c(nc3ccccc13)-c1cc3c(c(=O)n1C2)COC(=O)[C@]3(O)CC [D4] | 0.029 µg/mL (≈ 0.0648 µM) | 0.029 µg/mL (≈ 0.0648 µM) | 0.043 µg/mL (≈ 0.0961 µM) | 0.043 µg/mL (≈ 0.0961 µM) | 0.076 µg/mL (≈ 0.17 µM) | 0.076 µg/mL (≈ 0.17 µM) | 0.054 µg/mL (≈ 0.121 µM) | 0.054 µg/mL (≈ 0.121 µM) | +5% | 945.77% | 1047.5 mm^3 | +5% | 945.77% | 1047.5 mm^3 | 0.078 µg/mL (≈ 0.174 µM) | 30 mg/kg | 30 mg/kg | −7% | 1269.4 mm^3 | 1098.39% | Mouse weight (%) ([6]; Table 7): −7%; SJSA-1 (sarcoma tissue) growth rate (%) ([6]; Table 7): 1098.39%; SJSA-1 (sarcoma tissue) mean tumor volume (mm^3) ([6]; Table 7): 1269.4 mm^3 |
